Laboratory results from patent US20210127673A1, “HERBICIDES” (SYNGENTA PARTICIPATIONS AG, priority 2016, published 2021).

How the values were obtained:
Type in all cases: in vivo
Conditions in all cases: 1000 g/ha, evaluated after 13 days
[1] = test system: Echinochloa crus-galli (ECHCG); experiment: Post-emergence herbicidal activity, Echinochloa crus-galli; parameters: key: 5=total damage to plant; 0=no damage to plant
Experimental: (§1) Seeds of a variety of test species were sown in standard soil in pots: Triticum aestivium (TRZAW), Avena fatua (AVEFA), Alopecurus myosuroides (ALOMY), Echinochloa crus-galli (ECHCG), Lolium perenne (LOLPE), Zea Mays (ZEAMX), Abutilon theophrasti (ABUTH), Amaranthus retroflexus (AMARE) and Setaria faberi (SETFA). After 8 days cultivation (post-emergence) under controlled conditions in a glasshouse (at 24/16° C., day/night; 14 hours light; 65% humidity), the plants were sprayed with an aqueous spray solution derived from the formulation of the technical active ingredient in acetone/water (50:50) solution containing 0.5% Tween 20 (polyoxyethelyene sorbitan monolaurate, CAS RN 9005-64-5). The test plants were then grown in a glasshouse under controlled conditions (at 24/16° C., day/night; 14 hours light; 65% humidity) and watered twice daily. After 13 days, the test was evaluated (5=total damage to plant; 0=no damage to plant).

[2] = test system: Triticum aestivium (TRZAW); experiment: Pre-emergence herbicidal activity, Triticum aestivium; parameters: key: 5=total damage to plant; 0=no damage to plant
Experimental: (§2) Seeds of a variety of test species were sown in standard soil in pots: Triticum aestivium (TRZAW), Avena fatua (AVEFA), Alopecurus myosuroides (ALOMY), Echinochloa crus-galli (ECHCG), Lolium perenne (LOLPE), Zea Mays (ZEAMX), Abutilon theophrasti (ABUTH), Amaranthus retroflexus (AMARE) and Setaria faberi (SETFA). After cultivation for one day (pre-emergence) under controlled conditions in a glasshouse (at 24/16° C., day/night; 14 hours light; 65% humidity), the plants were sprayed with an aqueous spray solution derived from the formulation of the technical active ingredient in acetone/water (50:50) solution containing 0.5% Tween 20 (polyoxyethelyene sorbitan monolaurate, CAS RN 9005-64-5). The test plants were then grown in a glasshouse under controlled conditions (at 24/16°, day/night; 14 hours light; 65% humidity) and watered twice daily. After 13 days, the test was evaluated (5=total damage to plant; 0=no damage to plant).

[3] = test system: Triticum aestivium (TRZAW); experiment: Post-emergence herbicidal activity, Triticum aestivium; parameters: key: 5=total damage to plant; 0=no damage to plant
Experimental: as §1

Lolium perenne (LOLPE) [4] = experiment: Post-emergence herbicidal activity, Lolium perenne
Experimental: as §1

[5] = test system: Echinochloa crus-galli (ECHCG); experiment: Pre-emergence herbicidal activity, Echinochloa crus-galli
Experimental: as §2

Avena fatua (AVEFA) [6] = experiment: Post-emergence herbicidal activity, Avena fatua
Experimental: as §1

Lolium perenne (LOLPE) [7] = experiment: Pre-emergence herbicidal activity, Lolium perenne; parameters: key: 5=total damage to plant; 0=no damage to plant
Experimental: as §2

[8] = test system: Alopecurus myosuroides (ALOMY); experiment: Pre-emergence herbicidal activity, Alopecurus myosuroides; parameters: key: 5=total damage to plant; 0=no damage to plant
Experimental: as §2

Setaria faberi (SETFA) [9] = experiment: Post-emergence herbicidal activity, Setaria faberi; parameters: key: 5=total damage to plant; 0=no damage to plant
Experimental: as §1

Avena fatua (AVEFA) [10] = experiment: Pre-emergence herbicidal activity, Avena fatua; parameters: key: 5=total damage to plant; 0=no damage to plant
Experimental: as §2

[11] = test system: Alopecurus myosuroides (ALOMY); experiment: Post-emergence herbicidal activity, Alopecurus myosuroides; parameters: key: 5=total damage to plant; 0=no damage to plant
Experimental: as §1

Setaria faberi (SETFA) [12] = experiment: Pre-emergence herbicidal activity, Setaria faberi; parameters: key: 5=total damage to plant; 0=no damage to plant
Experimental: as §2

Compound: CNC(=O)Nc1ccc(-c2cncc(F)c2)nc1C(F)(F)F [Compound B49]
- Control of ECHCG after post-emergence application (score 0-5) [1]: 4
- Control of TRAZW after pre-emergence application (score 0-5) [2]: 0
- Control of TRAZW after post-emergence application (score 0-5) [3]: 0
- Control of LOLPE after post-emergence application (score 0-5) (Lolium perenne (LOLPE) [4]): 2
- Control of ECHCG after pre-emergence application (score 0-5) [5]: 3
- Control of AVEFA after post-emergence application (score 0-5) (Avena fatua (AVEFA) [6]): 2
- Control of LOLPE after pre-emergence application (score 0-5) (Lolium perenne (LOLPE) [7]): 0
- Control of ALOMY after pre-emergence application (score 0-5) [8]: 0
- Control of SETFA after post-emergence application (score 0-5) (Setaria faberi (SETFA) [9]): 4
- Control of AVEFA after pre-emergence application (score 0-5) (Avena fatua (AVEFA) [10]): 2
- Control of ALOMY after post-emergence application (score 0-5) [11]: 0
- Control of SETFA after pre-emergence application (score 0-5) (Setaria faberi (SETFA) [12]): 4

Compound: CC(C)c1cc(NC(=O)Nc2ccc(-c3cncc(F)c3)nc2C(F)(F)F)on1 [Compound B40]
- Control of ECHCG after post-emergence application (score 0-5) [1]: 1
- Control of TRAZW after pre-emergence application (score 0-5) [2]: 0
- Control of TRAZW after post-emergence application (score 0-5) [3]: 0
- Control of LOLPE after post-emergence application (score 0-5) (Lolium perenne (LOLPE) [4]): 1
- Control of ECHCG after pre-emergence application (score 0-5) [5]: 1
- Control of AVEFA after post-emergence application (score 0-5) (Avena fatua (AVEFA) [6]): 2
- Control of LOLPE after pre-emergence application (score 0-5) (Lolium perenne (LOLPE) [7]): 1
- Control of ALOMY after pre-emergence application (score 0-5) [8]: 0
- Control of SETFA after post-emergence application (score 0-5) (Setaria faberi (SETFA) [9]): 3
- Control of AVEFA after pre-emergence application (score 0-5) (Avena fatua (AVEFA) [10]): 0
- Control of ALOMY after post-emergence application (score 0-5) [11]: 0
- Control of SETFA after pre-emergence application (score 0-5) (Setaria faberi (SETFA) [12]): 1

Compound: CN1CCN(c2ccc(-c3cncc(F)c3)nc2C(F)(F)F)C1=O [Compound B46]
- Control of ECHCG after post-emergence application (score 0-5) [1]: 4
- Control of TRAZW after pre-emergence application (score 0-5) [2]: 0
- Control of TRAZW after post-emergence application (score 0-5) [3]: 0
- Control of LOLPE after post-emergence application (score 0-5) (Lolium perenne (LOLPE) [4]): 2
- Control of ECHCG after pre-emergence application (score 0-5) [5]: 2
- Control of AVEFA after post-emergence application (score 0-5) (Avena fatua (AVEFA) [6]): 3
- Control of LOLPE after pre-emergence application (score 0-5) (Lolium perenne (LOLPE) [7]): 0
- Control of ALOMY after pre-emergence application (score 0-5) [8]: 0
- Control of SETFA after post-emergence application (score 0-5) (Setaria faberi (SETFA) [9]): 4
- Control of AVEFA after pre-emergence application (score 0-5) (Avena fatua (AVEFA) [10]): 1
- Control of ALOMY after post-emergence application (score 0-5) [11]: 0
- Control of SETFA after pre-emergence application (score 0-5) (Setaria faberi (SETFA) [12]): 4

Compound: COC(=O)c1nc(-c2cncc(F)c2)ccc1NC(=O)OC(C)(C)C [Compound B77]
- Control of ECHCG after post-emergence application (score 0-5) [1]: 1
- Control of TRAZW after pre-emergence application (score 0-5) [2]: 0
- Control of TRAZW after post-emergence application (score 0-5) [3]: 0
- Control of LOLPE after post-emergence application (score 0-5) (Lolium perenne (LOLPE) [4]): 1
- Control of ECHCG after pre-emergence application (score 0-5) [5]: 1
- Control of AVEFA after post-emergence application (score 0-5) (Avena fatua (AVEFA) [6]): 1
- Control of LOLPE after pre-emergence application (score 0-5) (Lolium perenne (LOLPE) [7]): 0
- Control of ALOMY after pre-emergence application (score 0-5) [8]: 0
- Control of SETFA after post-emergence application (score 0-5) (Setaria faberi (SETFA) [9]): 2
- Control of AVEFA after pre-emergence application (score 0-5) (Avena fatua (AVEFA) [10]): 0
- Control of ALOMY after post-emergence application (score 0-5) [11]: 0

Compound: CC(C)(C)OC(=O)Nc1ccc(-c2cncc(OC(F)(F)F)c2)nc1C(F)(F)F [Compound B36]
- Control of ECHCG after post-emergence application (score 0-5) [1]: 3
- Control of TRAZW after pre-emergence application (score 0-5) [2]: 0
- Control of TRAZW after post-emergence application (score 0-5) [3]: 0
- Control of LOLPE after post-emergence application (score 0-5) (Lolium perenne (LOLPE) [4]): 1
- Control of ECHCG after pre-emergence application (score 0-5) [5]: 3
- Control of AVEFA after post-emergence application (score 0-5) (Avena fatua (AVEFA) [6]): 3
- Control of LOLPE after pre-emergence application (score 0-5) (Lolium perenne (LOLPE) [7]): 0
- Control of ALOMY after pre-emergence application (score 0-5) [8]: 0
- Control of AVEFA after pre-emergence application (score 0-5) (Avena fatua (AVEFA) [10]): 2
- Control of ALOMY after post-emergence application (score 0-5) [11]: 0
- Control of SETFA after pre-emergence application (score 0-5) (Setaria faberi (SETFA) [12]): 5

Compound: CN(C)C(=O)N(C)c1ccc(-c2cncc(F)c2)nc1C(F)(F)F [Compound B74]
- Control of ECHCG after post-emergence application (score 0-5) [1]: 4
- Control of TRAZW after pre-emergence application (score 0-5) [2]: 1
- Control of TRAZW after post-emergence application (score 0-5) [3]: 0
- Control of ECHCG after pre-emergence application (score 0-5) [5]: 4
- Control of LOLPE after pre-emergence application (score 0-5) (Lolium perenne (LOLPE) [7]): 1
- Control of ALOMY after pre-emergence application (score 0-5) [8]: 1
- Control of SETFA after post-emergence application (score 0-5) (Setaria faberi (SETFA) [9]): 5
- Control of AVEFA after pre-emergence application (score 0-5) (Avena fatua (AVEFA) [10]): 2
- Control of ALOMY after post-emergence application (score 0-5) [11]: 0
- Control of SETFA after pre-emergence application (score 0-5) (Setaria faberi (SETFA) [12]): 5

Compound: CN(C)C(=O)Nc1ccc(-c2cncc(F)c2)nc1C(F)(F)F [Compound B52]
- Control of ECHCG after post-emergence application (score 0-5) [1]: 4
- Control of TRAZW after pre-emergence application (score 0-5) [2]: 0
- Control of TRAZW after post-emergence application (score 0-5) [3]: 0
- Control of LOLPE after post-emergence application (score 0-5) (Lolium perenne (LOLPE) [4]): 3
- Control of ECHCG after pre-emergence application (score 0-5) [5]: 3
- Control of AVEFA after post-emergence application (score 0-5) (Avena fatua (AVEFA) [6]): 3
- Control of LOLPE after pre-emergence application (score 0-5) (Lolium perenne (LOLPE) [7]): 1
- Control of ALOMY after pre-emergence application (score 0-5) [8]: 0
- Control of SETFA after post-emergence application (score 0-5) (Setaria faberi (SETFA) [9]): 5
- Control of AVEFA after pre-emergence application (score 0-5) (Avena fatua (AVEFA) [10]): 2
- Control of ALOMY after post-emergence application (score 0-5) [11]: 0

Compound: CC(C)NC(=O)Nc1ccc(-c2cncc(F)c2)nc1C(F)(F)F [Compound B37, 1-[6-(5-fluoro-3-pyridyl)-2-(trifluoromethyl)-3-pyridyl]-3-isopropyl-urea]
- Control of ECHCG after post-emergence application (score 0-5) [1]: 5
- Control of TRAZW after pre-emergence application (score 0-5) [2]: 0
- Control of TRAZW after post-emergence application (score 0-5) [3]: 0
- Control of LOLPE after post-emergence application (score 0-5) (Lolium perenne (LOLPE) [4]): 2
- Control of ECHCG after pre-emergence application (score 0-5) [5]: 4
- Control of AVEFA after post-emergence application (score 0-5) (Avena fatua (AVEFA) [6]): 3
- Control of LOLPE after pre-emergence application (score 0-5) (Lolium perenne (LOLPE) [7]): 1
- Control of ALOMY after pre-emergence application (score 0-5) [8]: 0
- Control of AVEFA after pre-emergence application (score 0-5) (Avena fatua (AVEFA) [10]): 2
- Control of ALOMY after post-emergence application (score 0-5) [11]: 0
- Control of SETFA after pre-emergence application (score 0-5) (Setaria faberi (SETFA) [12]): 5

Compound: O=C(Nc1ccc(-c2cncc(F)c2)nc1C(F)(F)F)OC1CCS(=O)(=O)C1 (stereo not shown) [Compound B66]
- Control of ECHCG after post-emergence application (score 0-5) [1]: 4
- Control of TRAZW after pre-emergence application (score 0-5) [2]: 0
- Control of TRAZW after post-emergence application (score 0-5) [3]: 1
- Control of ECHCG after pre-emergence application (score 0-5) [5]: 3
- Control of LOLPE after pre-emergence application (score 0-5) (Lolium perenne (LOLPE) [7]): 1
- Control of ALOMY after pre-emergence application (score 0-5) [8]: 0
- Control of SETFA after post-emergence application (score 0-5) (Setaria faberi (SETFA) [9]): 5
- Control of AVEFA after pre-emergence application (score 0-5) (Avena fatua (AVEFA) [10]): 2
- Control of ALOMY after post-emergence application (score 0-5) [11]: 0
- Control of SETFA after pre-emergence application (score 0-5) (Setaria faberi (SETFA) [12]): 5
